Values joined by “and” are separate entries in the source; they are usually repeats but may differ in a detail not shown here. Equal values may be shown once.
Assay: xn = mol fraction of the nth substance listed

Ic1ccccc1 + c1ccccc1
viscosity [mPa·s], 101 kPa
Conditions	298.15 K	308.15 K	318.15 K	323.15 K
x1 = 0.0668	0.646	0.565	0.499	0.469
x1 = 0.0896	0.66	0.578	0.512	0.478
x1 = 0.8	1.274	–	–	0.917

CSCC[C@H](N)C(=O)O + O
viscosity, 101 kPa
Conditions	293.15 K	298.15 K	303.15 K	308.15 K	313.15 K	318.15 K
x1 = 0.00045	1.011 mPa·s and 1.009 mPa·s	0.8992 mPa·s and 0.8967 mPa·s	0.8057 mPa·s and 0.8039 mPa·s	0.727 mPa·s and 0.7258 mPa·s	0.6602 mPa·s and 0.6603 mPa·s	0.6044 mPa·s
x1 = 0.0009	1.019 mPa·s and 1.016 mPa·s	0.9063 mPa·s and 0.903 mPa·s	0.8126 mPa·s and 0.8103 mPa·s	0.734 mPa·s and 0.7327 mPa·s	0.6671 mPa·s and 0.6678 mPa·s	–
x1 = 0.0013	1.023 mPa·s	0.9098 mPa·s	0.8169 mPa·s	0.7392 mPa·s	0.6743 mPa·s	–
x1 = 0.00135	–	0.9131 mPa·s	0.8195 mPa·s	0.7408 mPa·s	0.6735 mPa·s	0.6178 mPa·s
x1 = 0.001798	–	–	0.8264 mPa·s	0.7475 mPa·s	–	0.6244 mPa·s
x1 = 0.0018	–	0.9165 mPa·s	0.8232 mPa·s	0.745 mPa·s	0.6815 mPa·s	–
x1 = 0.002247	1.039 mPa·s	0.9266 mPa·s	0.833 mPa·s	0.754 mPa·s	0.687 mPa·s	0.631 mPa·s
x1 = 0.00225	1.037 mPa·s	0.9232 mPa·s	0.8295 mPa·s	0.7524 mPa·s	0.688 mPa·s	–
x1 = 0.00269	1.044 mPa·s	0.9295 mPa·s	0.8368 mPa·s	0.7588 mPa·s	0.6951 mPa·s	–
x1 = 0.002693	1.046 mPa·s	0.9335 mPa·s	0.8396 mPa·s	0.7607 mPa·s	0.6936 mPa·s	0.6373 mPa·s
x1 = 0.00314	1.05 mPa·s	0.936 mPa·s	0.8435 mPa·s	0.7657 mPa·s	0.7019 mPa·s	–
x1 = 0.003143	1.053 mPa·s	0.9403 mPa·s	0.8465 mPa·s	0.7675 mPa·s	0.6999 mPa·s	0.6436 mPa·s
x1 = 0.003588	1.06 mPa·s	0.9474 mPa·s	0.8535 mPa·s	0.7743 mPa·s	0.7063 mPa·s	0.6495 mPa·s
x1 = 0.00359	1.057 mPa·s	0.9426 mPa·s	0.85 mPa·s	0.7724 mPa·s	0.7087 mPa·s	–

NCC(=O)[O-].[Na+] + O
viscosity [mPa·s], 101 kPa
Conditions	x1 = 0.01	x1 = 0.0194	x1 = 0.0289	x1 = 0.0371	x1 = 0.048
298.15 K	1.124	1.41	1.747	2.15	2.82
308.15 K	0.904	1.106	1.369	1.662	2.13
323.15 K	0.677	0.818	0.993	1.183	1.479

C1COCCO1 + CO
Conditions	viscosity [mPa·s]
293.15 K, 101 kPa, x2 = 0.2465	0.9992
293.15 K, 101 kPa, x2 = 0.3957	0.8686
293.15 K, 101 kPa, x2 = 0.5458	0.7639
293.15 K, 101 kPa, x2 = 0.6558	0.6972
293.15 K, 101 kPa, x2 = 0.7331	0.6579
293.15 K, 101 kPa, x2 = 0.8062	0.6268
293.15 K, 101 kPa, x2 = 0.8648	0.6069
293.15 K, 101 kPa, x2 = 0.9198	0.5935
293.15 K, 101 kPa, x2 = 0.9635	0.5877
293.15 K, 101.3 kPa, x2 = 0.1975	1.045
293.15 K, 101.3 kPa, x2 = 0.3447	0.9049
293.15 K, 101.3 kPa, x2 = 0.4743	0.8065
293.15 K, 101.3 kPa, x2 = 0.5836	0.7327
293.15 K, 101.3 kPa, x2 = 0.6782	0.6805
293.15 K, 101.3 kPa, x2 = 0.7588	0.6441
293.15 K, 101.3 kPa, x2 = 0.8312	0.6135
293.15 K, 101.3 kPa, x2 = 0.8936	0.5998
293.15 K, 101.3 kPa, x2 = 0.9503	0.59
298.15 K, 101 kPa, x1 = 0.3	0.6148
298.15 K, 101 kPa, x2 = 0.8474	0.5684
298.15 K, 101 kPa, x2 = 0.9275	0.5488
298.15 K, 101 kPa, x2 = 0.9636	0.5589
298.15 K, 101.3 kPa, x2 = 0.1975	0.9612
298.15 K, 101.3 kPa, x2 = 0.3447	0.8454
298.15 K, 101.3 kPa, x2 = 0.4743	0.7506
298.15 K, 101.3 kPa, x2 = 0.5836	0.6825
298.15 K, 101.3 kPa, x2 = 0.6782	0.6352
298.15 K, 101.3 kPa, x2 = 0.7588	0.6047
298.15 K, 101.3 kPa, x2 = 0.8312	0.578
298.15 K, 101.3 kPa, x2 = 0.9503	0.5443
303.15 K, 101 kPa, x2 = 0.2218	0.8759
303.15 K, 101 kPa, x2 = 0.4075	0.7425
303.15 K, 101 kPa, x2 = 0.5478	0.6573
303.15 K, 101 kPa, x2 = 0.6544	0.6056
303.15 K, 101 kPa, x2 = 0.7387	0.5694
303.15 K, 101 kPa, x2 = 0.8089	0.5455
303.15 K, 101 kPa, x2 = 0.8164	0.5434
303.15 K, 101 kPa, x2 = 0.8671	0.5288
303.15 K, 101 kPa, x2 = 0.9617	0.5105
303.15 K, 101.3 kPa, x2 = 0.1975	0.8931
303.15 K, 101.3 kPa, x2 = 0.3447	0.778
303.15 K, 101.3 kPa, x2 = 0.4743	0.6981
303.15 K, 101.3 kPa, x2 = 0.5836	0.6349
303.15 K, 101.3 kPa, x2 = 0.6782	0.5919
303.15 K, 101.3 kPa, x2 = 0.7588	0.5568
303.15 K, 101.3 kPa, x2 = 0.8312	0.5316
303.15 K, 101.3 kPa, x2 = 0.8936	0.5157
303.15 K, 101.3 kPa, x2 = 0.9503	0.5063
303.15 K, 101.33 kPa, x2 = 0.225	0.877
303.15 K, 101.33 kPa, x2 = 0.4115	0.733
303.15 K, 101.33 kPa, x2 = 0.662	0.603
303.15 K, 101.33 kPa, x2 = 0.923	0.52
308.15 K, 101.3 kPa, x2 = 0.1975	0.831
308.15 K, 101.3 kPa, x2 = 0.3447	0.7262
308.15 K, 101.3 kPa, x2 = 0.4743	0.6503
308.15 K, 101.3 kPa, x2 = 0.5836	0.593
308.15 K, 101.3 kPa, x2 = 0.6782	0.5507
308.15 K, 101.3 kPa, x2 = 0.7588	0.52
308.15 K, 101.3 kPa, x2 = 0.8312	0.497
308.15 K, 101.3 kPa, x2 = 0.9503	0.4725
313.15 K, 101 kPa, x2 = 0.2218	0.7572
313.15 K, 101 kPa, x2 = 0.2465	0.7401
313.15 K, 101 kPa, x2 = 0.4075	0.6436
313.15 K, 101 kPa, x2 = 0.5458	0.5763
313.15 K, 101 kPa, x2 = 0.6544	0.5294
313.15 K, 101 kPa, x2 = 0.7387	0.499
313.15 K, 101 kPa, x2 = 0.8089	0.4782
313.15 K, 101 kPa, x2 = 0.8671	0.4627
313.15 K, 101 kPa, x2 = 0.9635	0.446
323.15 K, 101 kPa, x2 = 0.2465	0.6508
323.15 K, 101 kPa, x2 = 0.3957	0.5742
323.15 K, 101 kPa, x2 = 0.5458	0.5093
323.15 K, 101 kPa, x2 = 0.6558	0.4701
323.15 K, 101 kPa, x2 = 0.7331	0.4449
323.15 K, 101 kPa, x2 = 0.8062	0.4249
323.15 K, 101 kPa, x2 = 0.8648	0.4107
323.15 K, 101 kPa, x2 = 0.9198	0.4003
323.15 K, 101 kPa, x2 = 0.9635	0.3949

O=C[C@H](O)[C@@H](O)[C@H](O)CO + C[N+](C)(C)CCO.[Cl-]
viscosity [mPa·s]
Conditions	x2 = 0.5	x2 = 0.6	x2 = 0.667
303 K, 101 kPa	34000	–	–
313 K, 101 kPa	11900	–	–
313.2 K, 100 kPa	855.5	1450	3450
318.2 K, 100 kPa	565.8	886.5	1886
323 K, 101 kPa	4740	–	–

C1COCCO1 + CCCCCCC
viscosity [mPa·s], 101 kPa
Conditions	x1 = 0.1112	x1 = 0.225	x1 = 0.3223	x1 = 0.4312	x1 = 0.5017	x1 = 0.6114	x1 = 0.7213	x1 = 0.8211	x1 = 0.9112
308.15 K	0.363	0.396	0.422	0.471	0.505	0.572	0.658	0.76	0.875
313.15 K	0.354	0.381	0.409	0.446	0.475	0.535	0.618	0.713	0.814
318.15 K	0.336	0.362	0.387	0.421	0.449	0.504	0.579	0.666	0.764

C[N+](C)(C)CC(=O)[O-] + O=C(O)CC(O)(CC(=O)O)C(=O)O
101.3 kPa, x1 = 0.333
Conditions	viscosity [mPa·s]
298 K	36920
323 K	2775

From the CheMixHub viscosity set
